In US3958011A, “Compositions of tri-n-propylacetic acid and salts thereof and treatment of neurological disorders with such compositions” (priority 1972, dated 1976):

Legend:
mice [1] = assay: Pentylenetetrazol-induced seizure (anticonvulsant action); assay type: in vivo, mice (OF 1); conditions: Mus musculus, ip, i.p., 125 mg/kg pentylenetetrazol i.p.
Protocol: The purpose of this test which is carried out on mice is to determine whether the compounds of the invention, when given preventively by intraperitoneal route, are capable at certain doses of protecting some of the animals against the epileptic seizure produced by an adequate and predetermined dose of pentylenetetrazol which would be 100% fatal in the absence of the compound. The test was carried out on batches of 10 male OF 1 mice weighing about 25 g.

mice [2] = assay: Posture reflex (hypnotic properties); assay type: in vivo, mice (OF 1); conditions: Mus musculus, ip, i.p., read-out: HD50, loss of posture reflex
Protocol: Male mice of the OF 1 strain, weighing about 25 g. were divided into batches of 10. The animals of each batch were given an intraperitoneal dose of the compound to be studied so that each batch received a higher dose than the preceding batch.
The numbers of animals which lost the reflex at various times after administration were noted.
In this way, the HD50 at different times after administration was determined i.e. the dose of the compound under study which caused 50% of the animals to lose the posture reflex at a given time after administration.

rats = assay: Anoxic seizure induced by gallamine triiodoethylate (antianoxic properties); assay type: in vivo, rats (OFA); conditions: 2 millimols/kg
Excerpt: The injection of a sufficient dose of a synthetic curariform substance such as gallamine triiodoethylate provokes in the rat paralysis of the diaphragm. The animal then dies by asphyxia.
Male rats of the OFA strain and weighing about 250 g. were first anesthetized with ether in order to enable tracheotomy to be performed and cortical electrodes to be inserted. Each rat was then maintained under conditions of artificial respiration by means of an appropriate apparatus and a paralysing dose of gallamine triiodoethylate was administered by intraperitoneal route to eliminate spontaneous breathing. The electrocorticogram, the electrocardiogram and the rectal temperature were registered. After a period of 30 minutes during which stabilization of the registrations was obtained the animal was treated with 2 millimols/kg of an oily solution of tri-n-propylacetic acid or an aqueous solution of one of its alkali metal salts. The artificial respiratory apparatus was stopped 5 minutes after treatment and note was taken of the cardiac frequency every 10 seconds as well as of the period of time between the stopping of the apparatus and the appearance of the flat tracing on the electrocorticogram. This period of time represents the period of survival of the animal. The value of the cardiac frequency corresponding to moment of appearance of the flat tracing was calculated by extrapolation.
The same test was performed on control animals but without administration of a compound of the invention.

[3] = 0.25 h, 15 min. after administration
[4] = 0.5 h, 30 min. after administration

With CCCC(CCC)(CCC)C(=O)[O-].[Na+] [Sodium tri-n-propylacetate, sodium tri-n-propylacetate] the ED50 (mice [1]; 0.125 h, 7 min. 30 sec after administration) was 78 mg/kg, the ED50 (mice [1]; [3]) was 66 mg/kg and the ED50 (mice [1]; [4]) was 110 mg/kg. The ED50 (mice [2]; [3]) was 120 mg/kg, the ED50 (mice [2]; [4]) was 130 mg/kg and the ED50 (mice [2]; 0.75 h, 45 min. after administration) was 150 mg/kg. For the same compound, the ED50 (mice [2]; 1 h, 60 min. after administration) was 200 mg/kg, the “Increase of period of survival versus controls” value (rats) was 19% and the Period of survival (rats; controls 74.3 ± 2.3) was 87.9 ± 3.7 s. The “Cardiac frequency when the flat tracing appears” value (rats; controls 150, calculated by extrapolation) was 109.
